Experimental data as given in PubChem BioAssay (NCI).
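In this assay, cells in 96-well plates receive the compound at five concentrations for 48 hours. Endpoints are linearly interpolated between the surrounding concentrations. At the TGI there is no net growth.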

What was measured:
Assay in all cases: NCI anticancer screen, dose series, 48 h
HCT-15 colon = system: HCT-15 colon
COLO 205 colon = system: COLO 205 colon
M19-MEL melanoma = system: M19-MEL melanoma
SNB-19 CNS = system: SNB-19 CNS
NCI-H226 lung = system: NCI-H226 lung
SN12C renal = system: SN12C renal
HOP-62 NSCLC = system: HOP-62 NSCLC
NCI-H460 lung = system: NCI-H460 lung
NCI-H522 lung = system: NCI-H522 lung
SW-620 colon = system: SW-620 colon
SK-MEL-5 melanoma = system: SK-MEL-5 melanoma
KM12 colon = system: KM12 colon
EKVX NSCLC = system: EKVX NSCLC
OVCAR-8 ovarian = system: OVCAR-8 ovarian
LXFL 529 NSCLC = system: LXFL 529 NSCLC
UACC-62 melanoma = system: UACC-62 melanoma
KM20L2 colon = system: KM20L2 colon
SF-539 CNS = system: SF-539 CNS
XF 498 CNS = system: XF 498 CNS
SF-268 CNS = system: SF-268 CNS
HL-60(TB) leukemia = system: HL-60(TB) leukemia
LOX IMVI melanoma = system: LOX IMVI melanoma
U251 CNS = system: U251 CNS
RXF 393 renal = system: RXF 393 renal
OVCAR-3 ovarian = system: OVCAR-3 ovarian
DMS 114 small cell lung = system: DMS 114 small cell lung
A549 NSCLC = system: A549 NSCLC
MALME-3M melanoma = system: MALME-3M melanoma
SR leukemia = system: SR leukemia
HCT-116 colon = system: HCT-116 colon
UACC-257 melanoma = system: UACC-257 melanoma
TK-10 renal = system: TK-10 renal
ACHN renal = system: ACHN renal
NCI-H23 lung = system: NCI-H23 lung
HT29 colon = system: HT29 colon
HCC-2998 colon = system: HCC-2998 colon
RPMI-8226 leukemia = system: RPMI-8226 leukemia
SF-295 CNS = system: SF-295 CNS
IGROV1 ovarian = system: IGROV1 ovarian
DMS 273 small cell lung = system: DMS 273 small cell lung
UO-31 renal = system: UO-31 renal
786-0 renal = system: 786-0 renal
M14 melanoma = system: M14 melanoma
SNB-75 CNS = system: SNB-75 CNS
CCRF-CEM leukemia = system: CCRF-CEM leukemia
K-562 leukemia = system: K-562 leukemia
DLD-1 colon = system: DLD-1 colon
SK-MEL-2 melanoma = system: SK-MEL-2 melanoma
OVCAR-5 ovarian = system: OVCAR-5 ovarian
MOLT-4 leukemia = system: MOLT-4 leukemia
HOP-92 NSCLC = system: HOP-92 NSCLC
SNB-78 CNS = system: SNB-78 CNS
SK-MEL-28 melanoma = system: SK-MEL-28 melanoma
OVCAR-4 ovarian = system: OVCAR-4 ovarian
HOP-18 NSCLC = system: HOP-18 NSCLC
CAKI-1 renal = system: CAKI-1 renal
SK-OV-3 ovarian = system: SK-OV-3 ovarian

Measured: TGI

CCOC(C[C@H](O)[C@H]1COC(=S)S1)OCC
not listed: SNB-75 CNS | CCRF-CEM leukemia | K-562 leukemia | DLD-1 colon | SK-MEL-2 melanoma | OVCAR-5 ovarian | MOLT-4 leukemia | HOP-92 NSCLC | SNB-78 CNS | SK-MEL-28 melanoma | OVCAR-4 ovarian | HOP-18 NSCLC | CAKI-1 renal | SK-OV-3 ovarian
> 100 µM: all other assays above

NCC1(N2CCOCC2)C2CCCC21CO (centres undefined)
not listed: EKVX NSCLC | UACC-62 melanoma | KM20L2 colon | XF 498 CNS | LOX IMVI melanoma | TK-10 renal
> 100 µM: all other assays above
